Measured values taken from US6495604B1, “Cycloalkene derivatives, process for producing the same, and use” (Takeda Chemical Industries, Ltd., priority 1998, dated 2002).

Legend:
[1] = tested on: NO production by RAW264.7 cell; assay: NO production-inhibiting effect in RAW264.7 cells (nitrite ion by DAN fluorescence); assay type: cell-based, mouse; conditions: LPS 5 ng/ml + interferon gamma 1 U/ml, nitrite ion in culture supernatant after overnight incubation
Method: Mouse macrophage cell line RAW264.7 was used as an iNOS-inducible cell and a test compound was examined for its % inhibition of NO production. The test compound was dissolved at 10 mM in N,N-dimethylformamide and diluted with an RPMI-1640 medium at the concentration of 0.1 mM. The concentration was further adjusted using the medium so that a final concentration ranging from 10 μM to 10 nM could be obtained by a 10-fold serial dilution and the test compound was added to a culture medium. On the day before the experiment, the cell was adjusted at 5×10^5/ml in an RPMI-1640 medium supplemented with 10% inactivated fetal calf serum and inoculated to a 96-well microplate at 1×10^5 cells/0.2 ml per well. After incubating at 37° C. under an atmosphere of 5% CO2/95% air overnight, the test compound adjusted as described above was added and then LPS and interferon gamma were added at the final concentrations of 5 ng/ml and 1 U/ml, respectively. After further incubating overnight, culture supernatants were examined for the concentration of nitrite ion (stable metabolite of NO) which was used as an index for the NO production. The nitrite ion concentration was determined by adding 25 μl of 20 μg/ml of 2,3-diaminonaphthalene (DAN) to 50 μl of the culture supernatant, followed by incubating at room temperature for 10 minutes, followed by adding 25 μl of 0.5 N NaOH, followed by determining a fluorescence at 450 nm (excitation wavelength: 365 nm). An IC50 represents the concentration of the test compound which inhibits 50% of the NO production.

[2] = tested on: IL-1α production, RAW264.7; assay: Cytokine production-inhibiting effect in RAW264.7: IL-1α; assay type: cell-based; conditions: Mus musculus, LPS 1.0 μg/ml in the absence of interferon gamma
Method: Using mouse macrophage cell line RAW264.7, a test compound was examined for its % inhibition of a cytokine production. The test compound was dissolved at 10 mM in N,N-dimethylformamide and dilutedwith an RPMI-1640 medium at the concentration of 0.1 mM. The concentration was further adjusted using the medium so that a final concentration ranging from 10 μM to 10 nM could be obtained by a 10-fold serial dilution and the test compound was added to a culture medium. On the day before the experiment, the cell was adjusted at 5×10^5/ml in an RPMI-1640 medium supplemented with 10% inactivated fetal calf serum and inoculated to a 96-well microplate at 1×10^5 cells/0.2 ml per well. After incubating at 37° C. under an atmosphere of 5% CO2/95% air overnight, the test compound adjusted as described above was added and then LPS and interferon-gamma were added at the final concentrations of 5 ng/ml and 1 U/ml, respectively. After further incubating overnight, culture supernatants were examined for the concentrations of TNF-α and IL-6. IL-1α was determined using 1.0 μg/ml of LPS in the absence of interferon gamma under otherwise similar conditions. Each cytokine was determined using an assay kit manufactured by Amersham. An IC50 represents the concentration of the test compound which inhibits 50% of the cytokine production.

[3] = tested on: blood nitric oxide concentration (NOx); assay: Effect on increase in blood nitric oxide level (LPS-treated mice); assay type: in vivo, BALB/c mice; conditions: Mus musculus; 30 mg/kg orally 1 hour before LPS 10 mg/kg i.p.; serum nitrite+nitrate 6 hours after LPS; vs control group; read-out: Inhibition % of NO in blood
[4] = tested on: serum TNF-α; assay: Effect on increase in blood cytokine level (LPS-treated mice): TNF-α; assay type: in vivo, BALB/c mice; conditions: Mus musculus; 30 mg/kg orally 1 hour before LPS 10 mg/kg i.p.; serum 1 hour after LPS; vs control group
Method: (§1) As a result of a defense mechanism against an infection or an immune abnormality, various in vivo cytokines are produced. Accordingly, an experimental animal model was used to examine the effect of a test compound on the increase in the blood cytokine level.
(§2) Female BALB/c mice (6 weeks old) were purchased and acclimatized for 1 week and assigned to the groups in each of which 6 to 8 animals were included. In a treatment group, 30 mg/kg of a test compound suspended in a 0.5% aqueous solution of methyl cellulose was given orally. In a control group, the vehicle was given similarly. After 1 hour, LPS (10 mg/kg) was given intraperitoneally to each animal in the treatment and control groups, and the blood was taken 1 hour after the LPS administration and examined for the serum concentrations of TNF-α. IL-1α, IL-1β and IL-6 concentrations were determined using the serum from the blood taken 6 hours after the LPS administration. Each cytokine was determined using an assay kit manufactured by Amersham.

[5] = tested on: serum IL-1α; assay: Effect on increase in blood cytokine level (LPS-treated mice): IL-1α; assay type: in vivo, BALB/c mice; conditions: Mus musculus; 30 mg/kg orally 1 hour before LPS 10 mg/kg i.p.; serum 6 hours after LPS; vs control group
Method: as §1, §2

[6] = tested on: serum IL-1β; assay: Effect on increase in blood cytokine level (LPS-treated mice): IL-1β; assay type: in vivo, BALB/c mice; conditions: Mus musculus; 30 mg/kg orally 1 hour before LPS 10 mg/kg i.p.; serum 6 hours after LPS; vs control group
Method: as §1, §2

[7] = tested on: serum IL-6; assay: Effect on increase in blood cytokine level (LPS-treated mice): IL-6; assay type: in vivo, BALB/c mice; conditions: Mus musculus; 30 mg/kg orally 1 hour before LPS 10 mg/kg i.p.; serum 6 hours after LPS; vs control group
Method: as §1, §2

[8] = Mus musculus, RAW264.7, RAW264.7

`CCOC(=O)C1=CCCCC1S(=O)(=O)Nc1ccc(Cl)cc1F` (stereo not shown) [Compound 1, ethyl 6-[N-(4-chloro-2-fluorophenyl)sulfamoyl]-1-cyclohexene-1-carboxylate] was tested, and the IC50 [1, 8] was 0.12 to 0.32 µM, the IC50 [2] was 0.39 µM and the inhibition at 30 mg/kg [3] was 76%. For the same molecule, the inhibition at 30 mg/kg [4] was 98%, the inhibition at 30 mg/kg [5] was 97% and the inhibition at 30 mg/kg [6] was 73%. It also gave an inhibition at 30 mg/kg [7] of 89%.

`CCOC(=O)C1=CCCCC1S(=O)(=O)Nc1ccc(F)cc1F` (stereo not shown) [Compound 3, ethyl 6-[N-(2,4-difluorophenyl)sulfamoyl]-1-cyclohexene-1-carboxylate] gave an IC50 ([1]; RAW264.7) of 0.013 to 0.039 µM and an inhibition at 30 mg/kg [3] of 90%.

`CCOC(=O)C1=CCCCC1S(=O)(=O)Nc1ccc(-n2cnnn2)cc1` (stereo not shown) [Compound 48, ethyl 6-[N-[4-(1H-tetrazol-1-yl)phenyl)sulfamoyl]-1-cyclohexene-1-carboxylate] was tested, and the IC50 [1, 8] was 3.8 µM.

With `CCOC(=O)C1=CCCCC1S(=O)(=O)Nc1ccc(-n2ccnn2)cc1` (stereo not shown) [Compound 49, ethyl 6-[N-[4-(1H-1,2,3-triazol-1-yl)phenyl)sulfamoyl]-1-cyclohexene-1-carboxylate] the IC50 [1, 8] was 5.6 µM.

In the case of `CCOC(=O)C1=CCCCC1S(=O)(=O)Nc1ccccc1C(F)(F)F` (stereo not shown) [Compound 50, ethyl 6-[N-(2-trifluoromethylphenyl)sulfamoyl]-1-cyclohexene-1-carboxylate], the IC50 [1, 8] is reported as 2 µM.

`CCOC(=O)C1=CCCCC1S(=O)(=O)Nc1ccc(C(=O)OC)cc1` (stereo not shown) [Compound 51, ethyl 6-(N-(4-methoxycarbonylphenyl)sulfamoyl]-1-cyclohexene-1-carboxylate] showed an IC50 [1, 8] of 4 µM.

For `O=C(OCc1ccccc1)C1=CCCCC1S(=O)(=O)Nc1ccc(F)cc1F` (stereo not shown) [Compound 52, benzyl 6-[N-(2,4-difluorophenyl)sulfamoyl]-1-cyclohexene-1-carboxylate], the IC50 [1, 8] was 4.3 µM.

`CCOC(=O)C1=CCCCC1S(=O)(=O)Nc1ccc(CNC(=NC(=O)OC(C)(C)C)NC(=O)OC(C)(C)C)cc1` (stereo not shown) [Compound 53, ethyl 6-[N-[4-[2,3-bis(t-butoxycarbonyl)guanidinomethyl]phenyl]sulfamoyl]-1-cyclohexene-1-carboxylate] gave an IC50 [1, 8] of 2.4 µM.

With `CCOC(=O)C1=CCCCC1S(=O)(=O)Nc1ccc(C(=O)OC)cc1Cl` (stereo not shown) [Compound 54, ethyl 6-[N-(2-chloro-4-methoxycarbonylphenyl)sulfamoyl]-1-cyclohexene-1-carboxylate] the IC50 [1, 8] was 2.3 µM.

`CCOC(=O)C1=CCCCC1S(=O)(=O)Nc1ccc(C#N)cc1Cl` (stereo not shown) [Compound 55, ethyl 6-[N-(2-chloro-4-cyanophenyl)sulfamoyl]-1-cyclohexene-1-carboxylate] showed an IC50 [1, 8] of 3.3 µM.

For `O=C(OCCO)C1=CCCCC1S(=O)(=O)Nc1ccc(F)cc1F` (stereo not shown) [Compound 56, 2-hydroxyethyl 6-[N-(2,4-difluorophenyl)sulfamoyl]-1-cyclohexene-1-carboxylate], the IC50 [1, 8] was 1 µM.

Work on `CCOC(=O)C1=CCCCC1S(=O)(=O)Nc1ccc(-n2cncn2)cc1F` (stereo not shown) [Compound 57, ethyl 6-[N-[2-fluoro-4-(IH-1,2,4-triazol-1-yl)phenyl)sulfamoyl]-1-cyclohexene-1-carboxylate] yielded an IC50 ([1]; RAW264.7) of 4.6 µM.

In the case of `CCOC(=O)C1=CCCC1S(=O)(=O)Nc1ccc(F)cc1F` (stereo not shown) [Compound 58, ethyl 5-[N-(2,4-difluorophenyl)sulfamoyl]-1-cyclopentene-1-carboxylate], the IC50 [1, 8] is reported as 0.39 µM.

`CC(C)(C)OC(=O)COC(=O)C1=CCCCC1S(=O)(=O)Nc1ccc(F)cc1F` (stereo not shown) [Compound 59, t-butyl [6-[N-(2,4-difluorophenyl)sulfamoyl]-1-cyclohexen-1-yl]carbonyloxyacetate] was tested, and the IC50 [1, 8] was 0.54 µM.

For `O=C(O)COC(=O)C1=CCCCC1S(=O)(=O)Nc1ccc(F)cc1F` (stereo not shown) [Compound 60, [6-[N-(2,4-difluorophenyl)sulfamoyl]-1-cyclohexen-1-yl]carbonyloxyacetic acid], the IC50 [1, 8] was 7.9 µM.

For `CCOC(=O)C1=CCCCCC1S(=O)(=O)Nc1ccc(F)cc1F` (stereo not shown) [Compound 61, ethyl 7-[N-(2,4-difluorophenyl)sulfamoyl]-1-cycloheptene-1-carboxylate], the IC50 [1, 8] was 2.8 µM.

`CCOC(=O)C1=CCCCC1S(=O)(=O)Nc1ccc(C(=O)NCC(=O)OC(C)(C)C)cc1Cl` (stereo not shown) [Compound 62, ethyl 6-[N-[2-chloro-4-(N-t-butoxycarbonylmethylcarbamoyl)phenyl]sulfamoyl]-1-cyclohexene-1-carboxylate] showed an IC50 [1, 8] of 3.8 µM.

In the case of `CCOC(=O)CNC(=O)c1ccc(NS(=O)(=O)C2CCCC=C2C(=O)OCC)c(Cl)c1` (stereo not shown) [Compound 63, ethyl 6-[N-[2-chloro-4-(N-ethoxycarbonylmethylcarbamoyl)phenyl]sulfamoyl]-1-cyclohexene-1-carboxylate], the IC50 [1, 8] is reported as 8.4 µM.

In the case of `CCOC(=O)C1=CCCC1S(=O)(=O)Nc1ccc(F)cc1Cl` (stereo not shown) [Compound 64, ethyl 5-[N-(2-chloro-4-fluorophenyl)sulfamoyl]-1-cyclopentene-1-carboxylate], the IC50 [1, 8] is reported as 0.25 µM.

`CCOC(=O)C1=CCCCCC1S(=O)(=O)Nc1ccc(F)cc1Cl` (stereo not shown) [Compound 65, ethyl 7-[N-(2-chloro-4-fluorophenyl)sulfamoyl]-1-cycloheptene-1-carboxylate] gave an IC50 [1, 8] of 0.32 µM.

`CCOC(=O)C1=C(S(=O)(=O)Nc2ccc(F)cc2F)CCC1` [Compound 66, ethyl 2-[N-(2,4-difluorophenyl)sulfamoyl]-1-cyclopentene-1-carboxylate] gave an IC50 [1, 8] of 8.1 µM.

Work on `COc1ccc(N2C(=O)C3=C(CCCC3)S2(=O)=O)cc1` [Compound 67, 2-(4-methoxyphenyl)-4,5,6,7-tetrahydro-1,2-benzoisothiazole-3(2H)-one 1,1-dioxide] yielded an IC50 [1, 8] of 6 µM.

Work on `O=C1C2=C(CCCC2)S(=O)(=O)N1c1ccc(F)cc1` [Compound 68, 2-(4-fluorophenyl)-4,5,6,7-tetrahydro-1,2-benzoisothiazol-3(2H)-one 1,1-dioxide] yielded an IC50 [1, 8] of 5.1 µM.

With `O=C1C2=C(CCCC2)S(=O)(=O)N1c1ccc(OCC(F)(F)C(F)(F)F)cc1` [Compound 69, 2-[4-(2,2,3,3,3-pentafluoropropoxy)phenyl]-4,5,6,7-tetrahydro-1,2-benzisothiazol-3(2H)-one 1,1-dioxide] the IC50 [1, 8] was 6.8 µM.

With `O=C1C2=CCCCC2S(=O)(=O)N1c1ccc(F)cc1F` (stereo not shown) [Compound 70, 2-(2,4-difluorophenyl)-5,6,7,7a-tetrahydro-1,2-benzoisothiazol-3(2H)-one 1,1-dioxide] the IC50 [1, 8] was 0.35 µM.

In the case of “d-ethyl 6-[N-(2,4-difluorophenyl)sulfamoyl]-1-cyclohexene-1-carboxylate [Compound 20]”, the IC50 ([1]; RAW264.7) is reported as 0.005 µM.

“ethyl 6-[N-3-fluorophenyl]sulfamoyl)-1-cyclohexene-1-carboxylate [Compound 11]” showed an IC50 ([1]; RAW264.7) of 0.31 µM.
